{"source": "paper PMC8802628", "about": "“Selective activation of PFKL suppresses the phagocytic oxidative burst” (Cell, 2021)", "molecular_target": "T1, PFKL (Homo sapiens, UniProt P17858)", "T1 construct": "endogenous in cells; host or cells: THP-1 cell lysate", "T1 sequence (P17858 2-780 limits assumed)": "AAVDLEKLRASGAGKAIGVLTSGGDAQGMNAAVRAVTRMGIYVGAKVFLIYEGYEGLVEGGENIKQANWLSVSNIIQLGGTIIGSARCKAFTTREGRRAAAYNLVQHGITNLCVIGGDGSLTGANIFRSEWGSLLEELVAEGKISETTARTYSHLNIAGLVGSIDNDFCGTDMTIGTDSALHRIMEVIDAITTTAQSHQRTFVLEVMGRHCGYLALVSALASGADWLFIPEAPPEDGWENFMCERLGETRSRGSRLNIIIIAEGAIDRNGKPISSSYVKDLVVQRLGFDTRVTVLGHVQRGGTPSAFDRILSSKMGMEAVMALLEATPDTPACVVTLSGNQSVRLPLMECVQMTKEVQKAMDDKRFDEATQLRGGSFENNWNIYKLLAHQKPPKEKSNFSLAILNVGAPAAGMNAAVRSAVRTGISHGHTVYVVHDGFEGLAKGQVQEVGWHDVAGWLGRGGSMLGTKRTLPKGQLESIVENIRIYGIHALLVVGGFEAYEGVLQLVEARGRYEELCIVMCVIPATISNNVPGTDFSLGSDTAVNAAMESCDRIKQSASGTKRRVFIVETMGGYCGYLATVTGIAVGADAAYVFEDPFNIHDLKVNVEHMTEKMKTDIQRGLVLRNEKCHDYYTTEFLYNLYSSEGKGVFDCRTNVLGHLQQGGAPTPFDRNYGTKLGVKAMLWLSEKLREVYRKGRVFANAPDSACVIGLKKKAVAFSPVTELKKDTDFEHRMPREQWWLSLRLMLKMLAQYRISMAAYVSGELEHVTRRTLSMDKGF", "assay": "Photoaffinity labeling pull-down in human blood leukocytes", "assay_type": "binding", "settings": "1 μM probe, competition with 10 μM NA-11", "experimental": "Buffy coats (100 mL) were diluted with ice-cold water (540 mL) for 30 s to lyse red blood cells. Following addition of 10 x HBSS buffer (50 mL) leukocytes were pelleted for 3 min at 300 x g, then washed twice in D-PBS and resuspended in RPMI medium. Cells (2 × 10^7) were plated on 15-cm dishes in DMSO vehicle, 1 μM PALP1 or 1 μM PALP6 for 30 min at 37°C. For competition, 10 μM NA-11 was added for 15 min, and then 1 μM PALP1 was added for an additional 30 min. To crosslink the photoaffinity probe, cells were UV-irradiated (High intensity mercury spot lamp, 100W, 365 nm, UVP) in RPMI for 5 min on ice. Cells were lysed in 200 μL 10 mM Tris pH 7.5, 150 mM NaCl, 1% NP-40, 2.5 mM MgCl2, 0.5 mM CaCl2, 2% glycerol, 10 μg/mL DNase-I, and 1 x EDTA-free Protease inhibitor cocktail. Lysates from 5 plates for each condition were pooled and incubate 10 min on ice.\nBiotin-DADPS tagging, biotin-streptavidin affinity purification, and on-bead digestion were performed as described ([Hewings et al., 2018]). Briefly, lysates were cleared by centrifugation and the lysate concentration adjusted to 5 mg/mL. Streptavidin Ultralink Resin (100 μL of 50% slurry, Pierce) was washed twice with PBS and mixed with 1 mL of lysate for 30 min at room temperature. […]\nFor the classical TPP, quantitative data from each temperature were used to generate a thermal titration curve and calculate a melting point. […]"}
{"smiles": "CC(=O)Nc1ccc2c(c1)OCc1cc(-c3ccccc3C#CCCCO)nn1C2", "note": "[NA-11]", "values": [{"measurement": "photoaffinity labeling / pull-down of PFKL", "value": "competed effectively by NA-11"}]}
